Measured values published in patent US8088761B2, “Enzyme inhibitors” (Cancer Research Technology Limited, priority 2005, dated 2012).

Experiments:
[1] = target: T1, Aurora-A (Homo sapiens, UniProt O14965); assay: Flashplate Aurora A enzyme inhibition assay; assay type: biochemical; conditions: Flashplate assay; IC50 range; read-out: Aurora-A inhibition
T1 sequence (O14965 1-403): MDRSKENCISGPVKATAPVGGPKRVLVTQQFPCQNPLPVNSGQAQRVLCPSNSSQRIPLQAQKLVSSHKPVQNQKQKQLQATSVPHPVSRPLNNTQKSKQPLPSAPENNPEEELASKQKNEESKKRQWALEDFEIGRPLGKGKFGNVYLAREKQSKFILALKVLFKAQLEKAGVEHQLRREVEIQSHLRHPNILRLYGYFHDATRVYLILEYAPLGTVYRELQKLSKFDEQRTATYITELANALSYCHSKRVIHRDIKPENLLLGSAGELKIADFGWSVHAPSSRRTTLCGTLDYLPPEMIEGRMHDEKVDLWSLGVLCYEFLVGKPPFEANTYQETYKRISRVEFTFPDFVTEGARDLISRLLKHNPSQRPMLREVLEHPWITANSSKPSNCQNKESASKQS
Procedure, shortened: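 This is a radiometric Flashplate format: plates were precoated with DTT, and compound (in 2% DMSO) was mixed with kinase buffer (pH 7.5 Tris, MgCl2, NaCl) containing 1 mM MBP, 20 μM ATP and ^33P-ATP. The reaction was started with 250 ng Aurora-A per well and incubated 2 h at RT. It was then stopped by 10 mM sodium pyrophosphate washing, and plates were scintillation-counted.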

[2] = system: HCT116 cells; assay: Cell viability assay (MTT) in HCT116 cell line; assay type: cell-based; conditions: Homo sapiens, HCT-116, 72 hrs, IC50 range, read-out: HCT116 cell growth inhibition
Procedure, shortened: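 MTT read-out (4 hrs, 37 °C, DMSO extraction) following 72 hrs of treatment with 0-50 μM Aurora inhibitor. HCT116 cells were plated a day earlier and tested in triplicate; IC50 derived from the curve.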

SMILES	IC50 [1]	IC50 [2]
COc1ccc(-c2nc3c(N4CCN(Cc5ccc(OC)nc5)CC4)c(Br)cnc3[nH]2)cc1 [Example 116, 6-Bromo-2-(4-methoxyphenyl)-7-(4-((6-methoxypyridin-3-yl)methyl)piperazin-1-yl)-3H-imidazo[4,5-b]pyridine]	< 500 nM	500 to 2000 nM
COc1ccc(CN2CCN(c3c(Br)cnc4[nH]c(-c5ccc(N6CCOCC6)cc5)nc34)CC2)cn1 [Example 118, 4-(4-(6-Bromo-7-(4-((6-methoxypyridin-3-yl)methyl)piperazin-1-yl)-3H-imidazo[4,5-b]pyridin-2-yl)phenyl)morpholine]	< 500 nM	< 500 nM
COc1ccc(-c2nc3c(N4CCN(Cc5cccc6c5OCO6)CC4)c(Br)cnc3[nH]2)cc1 [Example 119, 7-(4-(Benzo[d][1,3]dioxol-4-ylmethyl)piperazin-1-yl)-6-bromo-2-(4-methoxyphenyl)-3H-imidazo[4,5-b]pyridine]	< 500 nM	< 500 nM
Brc1cnc2[nH]c(-c3ccc(CN4CCOCC4)cc3)nc2c1N1CCN(Cc2cccc3c2OCO3)CC1 [Example 120, 4-(4-(7-(4-(Benzo[d][1,3]dioxol-4-ylmethyl)piperazin-1-yl)-6-bromo-3H-imidazo[4,5-b]pyridin-2-yl)benzyl)morpholine]	< 500 nM	2000 to 50000 nM
COc1ccc(-c2nc3c(N4CCN(Cc5cncnc5)CC4)c(Br)cnc3[nH]2)cc1 [Example 121, 6-Bromo-2-(4-methoxyphenyl)-7-(4-(pyrimidin-5-ylmethyl)piperazin-1-yl)-3H-imidazo[4,5-b]pyridine]	< 500 nM	< 500 nM
Brc1cnc2[nH]c(-c3ccc(N4CCOCC4)cc3)nc2c1N1CCN(Cc2cncnc2)CC1 [Example 123, 4-(4-(6-Bromo-7-(4-(pyrimidin-5-ylmethyl)piperazin-1-yl)-3H-imidazo[4,5-b]pyridin-2-yl)phenyl)morpholine]	< 500 nM	500 to 2000 nM
COc1ccc(-c2nc3c(N4CCN(Cc5ccc(C(F)(F)F)nc5)CC4)c(Br)cnc3[nH]2)cc1 [Example 124, 6-Bromo-2-(4-methoxyphenyl)-7-(4-((6-(trifluoromethyl)pyridin-3-yl)methyl)piperazin-1-yl)-3H-imidazo[4,5-b]pyridine]	< 500 nM	500 to 2000 nM
FC(F)(F)c1ccc(CN2CCN(c3c(Br)cnc4[nH]c(-c5ccc(CN6CCOCC6)cc5)nc34)CC2)cn1 [Example 125, 4-(4-(6-Bromo-7-(4-((6-(trifluoromethyl)pyridin-3-yl)methyl)piperazin-1-yl)-3H-imidazo[4,5-b]pyridin-2-yl)benzyl)morpholine]	< 500 nM	< 500 nM
COc1ccc(-c2nc3c(N4CCN(Cc5c(C)noc5C)CC4)c(Br)cnc3[nH]2)cc1 [Example 127, 4-((4-(6-Bromo-2-(4-methoxyphenyl)-3H-imidazo[4,5-b]pyridin-7-yl)piperazin-1-yl)methyl)-3,5-dimethylisoxazole]	< 500 nM	500 to 2000 nM
Cc1noc(C)c1CN1CCN(c2c(Br)cnc3[nH]c(-c4ccc(CN5CCOCC5)cc4)nc23)CC1 [Example 128, 4-(4-(6-Bromo-7-(4-((3,5-dimethylisoxazol-4-yl)methyl)piperazin-1-yl)-3H-imidazo[4,5-b]pyridin-2-yl)benzyl)morpholine]	< 500 nM	< 500 nM
CC(c1ccncc1)N1CCN(c2c(Br)cnc3[nH]c(-c4ccc(CN5CCOCC5)cc4)nc23)CC1 (stereo not drawn) [Example 129, 4-(4-(6-Bromo-7-(4-(1-(pyridin-4-yl)ethyl)piperazin-1-yl)-3H-imidazo[4,5-b]pyridin-2-yl)benzyl)morpholine]	< 500 nM	< 500 nM
CC(c1ccncc1)N1CCN(c2c(Br)cnc3[nH]c(-c4ccc(N5CCOCC5)cc4)nc23)CC1 (stereo not drawn) [Example 130, 4-(4-(6-Bromo-7-(4-(1-(pyridin-4-yl)ethyl)piperazin-1-yl)-3H-imidazo[4,5-b]pyridin-2-yl)phenyl)morpholine]	< 500 nM	500 to 2000 nM
CC(c1ccncc1)N1CCN(c2c(Br)cnc3[nH]c(-c4ccc(OCCN(C)C)cc4)nc23)CC1 (stereo not drawn) [Example 131, 2-(4-(6-Bromo-7-(4-(1-(pyridin-4-yl)ethyl)piperazin-1-yl)-3H-imidazo[4,5-b]pyridin-2-yl)phenoxy)-N,N-dimethylethanamine]	< 500 nM	< 500 nM
CC(C)(C)OC(=O)NCc1ccc(-c2nc3c(N4CCC(Cc5ccccc5)CC4)c(Br)cnc3[nH]2)cc1 [Example 132, tert-Butyl 4-(7-(4-benzylpiperidin-1-yl)-6-bromo-3H-imidazo[4,5-b]pyridin-2-yl)benzylcarbamate]	< 500 nM	2000 to 50000 nM
NCc1ccc(-c2nc3c(N4CCC(Cc5ccccc5)CC4)c(Br)cnc3[nH]2)cc1 [Example 133, (4-(7-(4-Benzylpiperidin-1-yl)-6-bromo-3H-imidazo[4,5-b]pyridin-2-yl)phenyl)methanamine]	< 500 nM	500 to 2000 nM
CC(C)(C)OC(=O)NCc1ccc(-c2nc3c(N4CCC(Oc5ccccc5)CC4)c(Br)cnc3[nH]2)cc1 [Example 134, tert-Butyl 4-(6-bromo-7-(4-phenoxypiperidin-1-yl)-3H-imidazo[4,5-b]pyridin-2-yl)benzylcarbamate]	< 500 nM	< 500 nM

Continued, values first:

IC50 [1]	IC50 [2]	SMILES
< 500 nM	500 to 2000 nM	CC(C)(C)OC(=O)N1CCN(Cc2ccc(-c3nc4c(N5CCN(Cc6cccnc6)CC5)c(Br)cnc4[nH]3)cc2)CC1 [Example 105, tert-Butyl 4-(4-(6-bromo-7-(4-(pyridin-3-ylmethyl)piperazin-1-yl)-3H-imidazo[4,5-b]pyridin-2-yl)benzyl)piperazine-1-carboxylate]
< 500 nM	500 to 2000 nM	Brc1cnc2[nH]c(-c3ccc(Cn4cccn4)cc3)nc2c1N1CCN(Cc2cccnc2)CC1 [Example 107, 2-(4-((1H-Pyrazol-1-yl)methyl)phenyl)-6-bromo-7-(4-(pyridin-3-ylmethyl)piperazin-1-yl)-3H-imidazo[4,5-b]pyridine]
< 500 nM	500 to 2000 nM	Brc1cnc2[nH]c(-c3ccc(-n4cccn4)cc3)nc2c1N1CCN(Cc2cccnc2)CC1 [Example 108, 2-(4-(1H-pyrazol-1-yl)phenyl)-6-bromo-7-(4-(pyridin-3-ylmethyl)piperazin-1-yl)-3H-imidazo[4,5-b]pyridine]
< 500 nM	500 to 2000 nM	Brc1cnc2[nH]c(-c3ccc(-n4ccnc4)cc3)nc2c1N1CCN(Cc2cccnc2)CC1 [Example 109, 2-(4-(1H-Imidazol-1-yl)phenyl)-6-bromo-7-(4-(pyridin-3-ylmethyl)piperazin-1-yl)-3H-imidazo[4,5-b]pyridine]
< 500 nM	500 to 2000 nM	Brc1cnc2[nH]c(-c3ccc(Cn4ccnc4)cc3)nc2c1N1CCN(Cc2cccnc2)CC1 [Example 110, 2-(4-((1H-Imidazol-1-yl)methyl)phenyl)-6-bromo-7-(4-(pyridin-3-ylmethyl)piperazin-1-yl)-3H-imidazo[4,5-b]pyridine]
< 500 nM	< 500 nM	CN(C)CCOc1ccc(-c2nc3c(N4CCN(Cc5cccnc5)CC4)c(Br)cnc3[nH]2)cc1 [Example 111, 2-(4-(6-Bromo-7-(4-(pyridin-3-ylmethyl)piperazin-1-yl)-3H-imidazo[4,5-b]pyridin-2-yl)phenoxy)-N,N-dimethylethanamine]
< 500 nM	500 to 2000 nM	Brc1cnc2[nH]c(-c3ccc(OCCN4CCOCC4)cc3)nc2c1N1CCN(Cc2cccnc2)CC1 [Example 112, 4-(2-(4-(6-Bromo-7-(4-(pyridin-3-ylmethyl)piperazin-1-yl)-3H-imidazo[4,5-b]pyridin-2-yl)phenoxy)ethyl)morpholine]
< 500 nM	< 500 nM	Brc1cnc2[nH]c(-c3ccc(OC4CCNCC4)cc3)nc2c1N1CCN(Cc2cccnc2)CC1 [Example 113, 6-Bromo-2-(4-(piperidin-4-yloxy)phenyl)-7-(4-(pyridin-3-ylmethyl)piperazin-1-yl)-3H-imidazo[4,5-b]pyridine]
< 500 nM	< 500 nM	OC1CCN(c2ccc(-c3nc4c(N5CCN(Cc6cccnc6)CC5)c(Br)cnc4[nH]3)cc2)CC1 [Example 114, 1-(4-(6-Bromo-7-(4-(pyridin-3-ylmethyl)piperazin-1-yl)-3H-imidazo[4,5-b]pyridin-2-yl)phenyl)piperidin-4-ol]
< 500 nM	500 to 2000 nM	O=S1(=O)CCN(c2ccc(-c3nc4c(N5CCN(Cc6cccnc6)CC5)c(Br)cnc4[nH]3)cc2)CC1 [Example 115, 4-(4-(6-Bromo-7-(4-(pyridin-3-ylmethyl)piperazin-1-yl)-3H-imidazo[4,5-b]pyridin-2-yl)phenyl)-1,1-dioxothiomorpholine]
< 500 nM	500 to 2000 nM	COc1ccc(CN2CCN(c3c(Br)cnc4[nH]c(-c5ccc(CN6CCOCC6)cc5)nc34)CC2)cn1 [Example 117, 4-(4-(6-Bromo-7-(4-((6-methoxypyridin-3-yl)methyl)piperazin-1-yl)-3H-imidazo[4,5-b]pyridin-2-yl)benzyl)morpholine]
